Values joined by “and” are separate entries in the source; they are usually repeats but may differ in a detail not shown here. Equal entries are not always repeated. Where two headings read alike, the source gives them in different places.
What was measured:
NF54^G358S-1 parasites = assay: P. falciparum proliferation assay (72 h, flow cytometry, SYBR Green I/MitoTracker); format: cell-based, Plasmodium falciparum; conditions: for FC (IC50) / FC (IC90): NF54G358S-1 compared to NF54WT
Procedure, shortened: (§1)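 Predominantly ring-stage cultures at 0.3% parasitaemia, 1% haematocrit, in medium with 10% O+ human serum; compound exposure 72 h, DMSO <0.5% (v/v). Live parasites counted by flow cytometry with SYBR Green I and 200 nM MitoTracker Deep Red. IC50/IC90 from linear interpolation of dose-response data.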

NF54^G358S-2 parasites = assay: as above; format: cell-based, Plasmodium falciparum; conditions: for FC (IC50) / FC (IC90): NF54G358S-2 compared to NF54WT
Procedure, shortened: as §1

[1] = target: T1, PfATP4^G358S (membranes from Dd2-Polδ-PfATP4^G358S parasites) (Plasmodium falciparum, UniProt A0A143ZZK9, G358S); assay: Membrane ATPase assay, ATP4-associated (Na+-dependent) ATPase activity; format: biochemical; parameters: IC50 for inhibition of ATP4-associated ATPase activity, MEAN / IC50 for inhibition of ATP4-associated ATPase activity: unit: nM; conditions: for IC50 for ATP4-associated ATPase activity: membranes from Dd2-Polδ-PfATP4G358S, mean ± SEM
T1 sequence (A0A143ZZK9 1-1264 G358S): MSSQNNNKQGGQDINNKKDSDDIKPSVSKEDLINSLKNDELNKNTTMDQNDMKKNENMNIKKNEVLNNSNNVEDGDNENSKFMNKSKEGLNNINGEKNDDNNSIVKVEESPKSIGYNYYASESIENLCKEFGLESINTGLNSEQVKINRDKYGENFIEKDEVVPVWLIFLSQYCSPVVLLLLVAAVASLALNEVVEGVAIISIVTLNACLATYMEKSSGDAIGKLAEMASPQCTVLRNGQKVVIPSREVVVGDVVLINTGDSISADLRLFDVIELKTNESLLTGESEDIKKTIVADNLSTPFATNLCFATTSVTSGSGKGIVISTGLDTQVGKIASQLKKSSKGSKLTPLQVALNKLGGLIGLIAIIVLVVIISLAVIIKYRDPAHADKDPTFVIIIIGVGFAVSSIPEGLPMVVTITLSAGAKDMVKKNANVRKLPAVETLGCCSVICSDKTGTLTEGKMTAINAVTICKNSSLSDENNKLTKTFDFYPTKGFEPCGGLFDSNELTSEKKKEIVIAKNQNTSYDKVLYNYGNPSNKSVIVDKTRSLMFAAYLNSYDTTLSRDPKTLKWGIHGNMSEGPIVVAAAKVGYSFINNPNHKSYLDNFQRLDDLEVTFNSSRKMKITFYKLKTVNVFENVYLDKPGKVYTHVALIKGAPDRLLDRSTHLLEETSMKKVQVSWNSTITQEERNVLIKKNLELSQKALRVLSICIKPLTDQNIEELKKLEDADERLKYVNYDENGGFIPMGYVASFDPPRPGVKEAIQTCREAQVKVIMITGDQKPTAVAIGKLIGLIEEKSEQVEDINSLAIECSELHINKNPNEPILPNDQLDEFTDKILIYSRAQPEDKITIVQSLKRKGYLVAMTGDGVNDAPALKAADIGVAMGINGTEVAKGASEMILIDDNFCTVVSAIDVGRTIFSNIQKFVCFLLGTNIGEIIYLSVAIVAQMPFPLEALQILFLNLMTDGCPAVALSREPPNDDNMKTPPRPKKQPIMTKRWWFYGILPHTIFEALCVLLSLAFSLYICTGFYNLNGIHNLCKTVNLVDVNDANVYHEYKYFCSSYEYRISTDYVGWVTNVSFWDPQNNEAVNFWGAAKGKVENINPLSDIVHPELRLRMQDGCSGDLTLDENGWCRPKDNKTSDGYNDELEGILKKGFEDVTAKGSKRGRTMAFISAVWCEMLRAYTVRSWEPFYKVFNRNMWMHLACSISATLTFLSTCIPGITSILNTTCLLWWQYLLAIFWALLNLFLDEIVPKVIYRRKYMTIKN
Description: Membranes from isolated P. falciparum or extracellular T. gondii parasites were prepared by lysing parasites in ice-cold deionized water containing a 1:500 dilution of Protease Inhibitor Cocktail Set III (Merck Millipore), then washing the membrane preparation three times in ice-cold deionized water (with protease inhibitors present for the first two washes)[15]. Protein concentrations in the membrane preparations were measured using a Bradford assay. The PiColorLock Gold Phosphate Detection System (Innova Biosciences) was used to measure the production of Pi from hydrolysis of ATP[15]. Membrane preparations were diluted in either a high Na^+ solution (yielding final conditions in the reactions of 150 mM NaCl, 20 mM KCl, 2 mM MgCl2, 50 mM Tris, pH 7.2) or a Na^+-free solution (yielding final conditions of 150 mM choline chloride, 20 mM KCl, 2 mM MgCl2, 50 mM Tris, pH 7.2) to achieve a total protein concentration of 50 μg/mL. […] The reactions were performed at 37 °C, and were initiated by the addition of 1 mM ATP (Na2ATP۰3H2O; MP Biomedicals) and terminated 10 min later by adding 100 μL of reaction mixture (in duplicate) to 25 μL “Gold mix” in a 96-well plate. […] Background values (averaged from wells containing all components, but to which ATP was not added until after the membrane was exposed to Gold mix) were subtracted from the data. For each treatment, the ATPase activity associated with the (Na^+-dependent) PfATP4 and TgATP4 proteins was calculated by subtracting data obtained in the low Na^+ condition (containing only the 2 mM Na^+ introduced on addition of 1 mM Na2ATP) from that obtained in the high Na^+ condition.

[2] = NF54G358S-1, single experiments, source data of Fig. 2 (nM in Supplementary Table 5), read-out: IC50 values
[3] = NF54G358S-1 parasites, individual experiments, read-out: IC90 values
[4] = Plasmodium falciparum, NF54, NF54G358S-1, 10% human serum, read-out: IC50 ± SEM
[5] = Plasmodium falciparum, NF54, NF54G358S-1, 10% human serum, read-out: IC90 ± SEM
[6] = Plasmodium falciparum, NF54, NF54G358S-1, MEAN, source data of Fig. 2, read-out: IC50 values, MEAN
[7] = Plasmodium falciparum, NF54, NF54G358S-1, single experiments, source data of Fig. 2 (nM in Supplementary Table 5), read-out: IC50 values
[8] = Plasmodium falciparum, NF54, NF54G358S-1 parasites, individual experiments, read-out: IC90 values
[9] = Plasmodium falciparum, NF54, NF54G358S-1 parasites, mean of the experiments, read-out: IC90 values, MEAN
[10] = NF54G358S-2, single experiments, source data of Fig. 2 (nM in Supplementary Table 5), read-out: IC50 values
[11] = NF54G358S-2 parasites, individual experiments, read-out: IC90 values
[12] = Plasmodium falciparum, NF54, NF54G358S-2, 10% human serum, read-out: IC90 ± SEM
[13] = Plasmodium falciparum, NF54, NF54G358S-2, MEAN, source data of Fig. 2, read-out: IC50 values, MEAN
[14] = Plasmodium falciparum, NF54, NF54G358S-2, single experiments, source data of Fig. 2 (nM in Supplementary Table 5), read-out: IC50 values
[15] = Plasmodium falciparum, NF54, NF54G358S-2 parasites, individual experiments, read-out: IC90 values
[16] = Plasmodium falciparum, NF54, NF54G358S-2 parasites, mean of the experiments, read-out: IC90 values, MEAN

Structure (SMILES)	IC50 (NF54^G358S-1 parasites; [2])	FC (IC50) (NF54^G358S-1 parasites) [fold]	FC (IC90) (NF54^G358S-1 parasites) [fold]	IC90 (NF54^G358S-1 parasites; [3])	IC50 (NF54^G358S-1 parasites; [4]) [nM]	IC90 (NF54^G358S-1 parasites; [5]) [µM]	IC50 (NF54^G358S-1 parasites; [6]) [nM]	IC50 (NF54^G358S-1 parasites; [7]) [nM]	IC90 (NF54^G358S-1 parasites; [8]) [µM]	IC90 (NF54^G358S-1 parasites; [9]) [µM]	IC50 (NF54^G358S-2 parasites; [10])	FC (IC50) (NF54^G358S-2 parasites) [fold]	FC (IC90) (NF54^G358S-2 parasites) [fold]	IC90 (NF54^G358S-2 parasites; [11])	IC90 (NF54^G358S-2 parasites; [12]) [µM]	IC50 (NF54^G358S-2 parasites; [13]) [nM]	IC50 (NF54^G358S-2 parasites; [14]) [nM]	IC90 (NF54^G358S-2 parasites; [15]) [µM]	IC90 (NF54^G358S-2 parasites; [16]) [µM]	IC50 for ATP4-associated ATPase activity [1]	also measured
N#Cc1cc(NC(=O)[C@H]2c3ccccc3C(=O)N(CC(F)(F)F)[C@@H]2c2cccnc2)ccc1F [(+)-SJ733]	12600 nM and 15300 nM and 15000 nM	148.8	155.4	25.9 µM and 24.2 µM and 24.3 µM	14000 ± 683	25.4 ± 0.727	14000	13000	27.2	25.4	11600 nM and 13800 nM and 13500 nM	138.1	152.9	25.5 µM and 23.3 µM and 23.8 µM	25 ± 0.892	13000	12900	27.3	25	829 ± 25 (3) (P = 5 × 10^−6) nM	IC50 (NF54^G358S-2 parasites; Plasmodium falciparum, NF54, NF54G358S-2, 10% human serum, read-out: IC50 ± SEM): 13000 ± 480 nM; IC50 for inhibition of ATP4-associated ATPase activity ([1]; Dd2-Polδ-PfATP4G358S membranes, single experiments, source data of Table 1 (nM there)): 816 and 877 and 793
C[C@H]1Cc2c([nH]c3cc(Cl)c(F)cc23)[C@@]2(N1)C(=O)Nc1ccc(Cl)cc12 [Cipargamin]	2030 nM and 1970 nM and 2280 nM	768.6	910.8	3.46 µM (2×) and 3.39 µM	2030 ± 93.9	3.461 ± 0.0307	2030	1840	3.54	3.46	1750 nM and 2010 nM and 2430 nM	751.9	903.4	3.35 µM and 3.42 µM and 3.53 µM	3.43 ± 0.0367	1980	1750	3.43	3.43	99 ± 21 (4) (P = 0.004) nM	IC50 for inhibition of ATP4-associated ATPase activity, MEAN ([1]; Dd2-Polδ-PfATP4G358S membranes, MEAN, source data of Table 1 (nM there)): 99.4

Source: publication PMC9525273 (Nature Communications, 2022)
